These are literature values, as cited in patent US12369587B2, “Aqueous composition of epyrifenacil, flumioxazin and pyroxasulfone” (Valent U.S.A. LLC, priority 2020, dated 2025).

With `C#CCN1C(=O)COc2cc(F)c(N3C(=O)C4=C(CCCC4)C3=O)cc21` [flumioxazin, 2-(7-fluoro-3-oxo-4-prop-2-ynyl-1,4-benzoxazin-6-yl)-4,5,6,7-tetrahydroisoindole-1,3-dione], the water solubility is given as 1.79 ppm.
